# Test results as given in publication PMC12070605 (BMC Chemistry, 2025).
# Legend:
# Type in all cases: cell-based, human
# MCF-7 cell line [1] = experiment: MTT cytotoxicity assay, MCF-7
# MCF-7 cell line [2] = experiment: Annexin V-PI flow cytometry apoptosis assay; conditions: 72 h, untreated 4.5%
# MCF-7 cell line [3] = experiment: Cell cycle analysis by flow cytometry; conditions: 72 h, untreated 15.93%
Structure (SMILES),improvement of activity compared to Erlotinib (MCF-7 cell line [1]) [folds],percentage of apoptotic cells (MCF-7 cell line [2]; 5 µM) [%],percentage of apoptotic cells (MCF-7 cell line [2]; 10 µM) [%],percentage of apoptotic cells (MCF-7 cell line [2]; 20 µM) [%],accumulation of the cells in S phase (MCF-7 cell line [3]; 5 µM) [%],accumulation of the cells in S phase (MCF-7 cell line [3]; 10 µM) [%],accumulation of the cells in S phase (MCF-7 cell line [3]; 20 µM) [%]
"NNc1nc2ccc(Br)cc2c(=O)n1-c1ccc(F)cc1 [7j, 6-bromo-3-(4-fluorophenyl)-2-hydrazineylquinazolin-4(3H)-one]",6,–,–,–,–,–,–
"NNc1nc2ccc(Br)cc2c(=O)n1-c1ccc(Cl)cc1 [7k, 6-bromo-3-(4-chlorophenyl)-2-hydrazineylquinazolin-4(3H)-one]",6,17.46,41.2,56,16.66,25.65,30.61
